The source of these data is PubChem BioAssay AID330 (DTP/NCI, 2004).

Several values for one entry are separate records, joined by “and”; a condition that tells them apart may be missing. Identical values can stand only once. Toxic doses and inconclusive results are not listed.

The test system of the assay is P388 leukemia ip, CD2F1 mice, survival T/C. Briefly: NCI In Vivo Anticancer Drug Screen. Data for tumor model P388 Leukemia (intraperitoneal) in CD2F1 (CDF1) mice. To be noted: endpoint: median survival time, higher = longer survival. In outline: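 Mice carrying the transplanted tumor received test compound or vehicle. Survival was recorded in each group, and the value is the treated-group measurement divided by that of the vehicle-treated control group.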

[1] abbreviates: dose: 30.0 mg/kg/injection, schedule: Q01DX005 (ip), vehicle: Klucel (hydroxypropylcellulose) (HPC).
Where [2] appears, read: dose: 50.0 mg/kg/injection, schedule: Q01DX005 (ip), vehicle: saline with Tween-80.
[3] abbreviates: dose: 100.0 mg/kg/injection, schedule: Q01DX005 (ip), vehicle: saline with Tween-80.

As for `COc1cc(O)c(C(c2ccccc2)c2c(O)c(C)c(O)c3c2OC(c2ccccc2)CC3=O)c(O)c1C` (centres undefined), the T/C was 99 % of control (dose: 5.0 mg/kg/injection, schedule: Q01DX009 (ip), vehicle: Klucel (hydroxypropylcellulose) (HPC)); 99 % of control (dose: 10.0 mg/kg/injection, schedule: Q01DX009 (ip), vehicle: Klucel (hydroxypropylcellulose) (HPC)); 103 % of control (dose: 20.0 mg/kg/injection, schedule: Q01DX009 (ip), vehicle: Klucel (hydroxypropylcellulose) (HPC)); 99 % of control (dose: 40.0 mg/kg/injection, schedule: Q01DX009 (ip), vehicle: Klucel (hydroxypropylcellulose) (HPC)).
As for `O=C1CSC(c2ccccc2F)N1c1nncs1` (centres undefined), the T/C runs as follows: under setting [1], 100 % of control; (dose: 60.0 mg/kg/injection, schedule: Q01DX005 (ip), vehicle: Klucel (hydroxypropylcellulose) (HPC)) 99 % of control; (dose: 120.0 mg/kg/injection, schedule: Q01DX005 (ip), vehicle: Klucel (hydroxypropylcellulose) (HPC)) 100 % of control; (dose: 240.0 mg/kg/injection, schedule: Q01DX005 (ip), vehicle: Klucel (hydroxypropylcellulose) (HPC)) 110 % of control.
In the case of `Cc1ccc(C(=O)Cc2ccccc2C#N)cc1`, the T/C (dose: 12.5 mg/kg/injection, schedule: Q01DX005 (ip), vehicle: Klucel (hydroxypropylcellulose) (HPC)) was 102 % of control and 103 % of control; the T/C (dose: 25.0 mg/kg/injection, schedule: Q01DX005 (ip), vehicle: Klucel (hydroxypropylcellulose) (HPC)) was 88 % of control and 97 % of control; the T/C (dose: 50.0 mg/kg/injection, schedule: Q01DX005 (ip), vehicle: Klucel (hydroxypropylcellulose) (HPC)) was 97 % of control; the T/C (dose: 100.0 mg/kg/injection, schedule: Q01DX005 (ip), vehicle: Klucel (hydroxypropylcellulose) (HPC)) is 105 % of control.
In the case of `O=C(Nc1ccccc1)OCc1c(COC(=O)Nc2ccccc2)c(-c2ccc(Cl)c(Cl)c2)n2c1CCC2`, the T/C reads like this: (dose: 12.5 mg/kg/injection, schedule: Q01DX005 (ip), vehicle: distilled water + Tween-80) 122 % of control; (dose: 100.0 mg/kg/injection, schedule: Q01DX005 (ip), vehicle: distilled water + Tween-80) 155 % of control; (dose: 200.0 mg/kg/injection, schedule: Q01DX005 (ip), vehicle: distilled water + Tween-80) 160 % of control.
For `COc1nc(NC(C)C)nc(NC(C)C)n1`, the T/C (dose: 50.0 mg/kg/injection, schedule: Q04DX003 (ip), vehicle: saline with Tween-80) is 87 % of control; the T/C (dose: 100.0 mg/kg/injection, schedule: Q04DX003 (ip), vehicle: saline with Tween-80) was 95 % of control; the T/C (dose: 200.0 mg/kg/injection, schedule: Q04DX003 (ip), vehicle: saline with Tween-80) is 104 % of control.
Consider `Cc1nc(Cl)c2c3c(sc2n1)CCCC3`, for which the T/C is, setting by setting: (dose: 18.75 mg/kg/injection, schedule: Q01DX001 (ip), vehicle: saline sonified) 95 % of control; (dose: 37.5 mg/kg/injection, schedule: Q01DX001 (ip), vehicle: saline sonified) 100 % of control; (dose: 75.0 mg/kg/injection, schedule: Q01DX001 (ip), vehicle: saline sonified) 100 % of control.
Consider `CNC(=O)OCc1nn(-c2ccc(Cl)c(Cl)c2)c(C)c1COC(=O)NC`, for which the T/C is, setting by setting: (dose: 12.5 mg/kg/injection, schedule: Q01DX009 (ip), vehicle: distilled water + Tween-80) 87 % of control and 93 % of control; (dose: 25.0 mg/kg/injection, schedule: Q01DX009 (ip), vehicle: distilled water + Tween-80) 86 % of control and 89 % of control; (dose: 50.0 mg/kg/injection, schedule: Q01DX009 (ip), vehicle: distilled water + Tween-80) 90 % of control; (dose: 100.0 mg/kg/injection, schedule: Q01DX009 (ip), vehicle: distilled water + Tween-80) 88 % of control; (dose: 200.0 mg/kg/injection, schedule: Q01DX009 (ip), vehicle: distilled water + Tween-80) 86 % of control and 87 % of control.
With `N#Cc1[nH]nc(N)c1C#N`, the T/C was 103 % of control (dose: 100.0 mg/kg/injection, schedule: Q01DX001 (ip), vehicle: water); 103 % of control (dose: 200.0 mg/kg/injection, schedule: Q01DX001 (ip), vehicle: water); 98 % of control (dose: 400.0 mg/kg/injection, schedule: Q01DX001 (ip), vehicle: water).
For the molecule `C=CCOC(=O)OCCCO`, the T/C is, setting by setting: (dose: 60.0 mg/kg/injection, schedule: Q01DX005 (ip), vehicle: saline) 105 % of control; (dose: 120.0 mg/kg/injection, schedule: Q01DX005 (ip), vehicle: saline) 99 % of control.
Regarding `CN(C)C(=S)SCN1CCCCC1`, the T/C runs as follows: (dose: 6.25 mg/kg/injection, schedule: Q01DX009 (ip), vehicle: saline with Tween-80) 100 % of control; (dose: 12.5 mg/kg/injection, schedule: Q01DX009 (ip), vehicle: saline with Tween-80) 101 % of control; (dose: 25.0 mg/kg/injection, schedule: Q01DX009 (ip), vehicle: saline with Tween-80) 100 % of control; (dose: 50.0 mg/kg/injection, schedule: Q01DX009 (ip), vehicle: saline with Tween-80) 95 % of control.
As for `Cc1ccc(C(C)(C)C)cc1Br`, the T/C reads like this: (dose: 100.0 mg/kg/injection, schedule: Q01DX001 (ip), vehicle: other) 95 % of control; (dose: 200.0 mg/kg/injection, schedule: Q01DX001 (ip), vehicle: other) 100 % of control; (dose: 400.0 mg/kg/injection, schedule: Q01DX001 (ip), vehicle: other) 88 % of control.
Consider `CCC1(/C=N/NC(N)=O)NC(=O)NC1=O` (centres undefined), for which the T/C is 93 % of control under setting [2]; 96 % of control under setting [3]; 88 % of control (dose: 200.0 mg/kg/injection, schedule: Q01DX005 (ip), vehicle: saline with Tween-80).
With `CC(=O)C(=O)c1ccc(O)cc1O`, the T/C reads like this: (dose: 10.0 mg/kg/injection, schedule: Q01DX009 (ip), vehicle: saline with Tween-80) 96 % of control; (dose: 20.0 mg/kg/injection, schedule: Q01DX009 (ip), vehicle: saline with Tween-80) 103 % of control; (dose: 40.0 mg/kg/injection, schedule: Q01DX009 (ip), vehicle: saline with Tween-80) 107 % of control.
`CCN(CC)c1ccc2nc3ccc(N=Nc4c(O)ccc5ccccc45)cc3[n+](-c3ccccc3)c2c1`: the T/C was 115 % of control (dose: 0.75 mg/kg/injection, schedule: Q01DX005 (ip), vehicle: saline with Tween-80); 120 % of control (dose: 1.5 mg/kg/injection, schedule: Q01DX005 (ip), vehicle: saline with Tween-80); 120 % of control (dose: 3.0 mg/kg/injection, schedule: Q01DX005 (ip), vehicle: saline with Tween-80); 90 % of control (dose: 6.0 mg/kg/injection, schedule: Q01DX005 (ip), vehicle: saline with Tween-80).
Regarding `CCc1nc(N)nc(N)c1-c1ccc(Cl)c(NN=NC)c1`, the T/C was 109 % of control (dose: 12.5 mg/kg/injection, schedule: Q01DX005 (ip), vehicle: saline with Tween-80); 108 % of control (dose: 25.0 mg/kg/injection, schedule: Q01DX005 (ip), vehicle: saline with Tween-80); 105 % of control and 110 % of control under setting [2]; 112 % of control under setting [3].
For the molecule `CC1(C)N=C(N)N=C(N)N1c1ccc(C(C#N)CCCc2ccccc2)cc1` (centres undefined), the T/C runs as follows: (dose: 7.5 mg/kg/injection, schedule: Q01DX005 (ip), vehicle: Klucel (hydroxypropylcellulose) (HPC)) 100 % of control; (dose: 15.0 mg/kg/injection, schedule: Q01DX005 (ip), vehicle: Klucel (hydroxypropylcellulose) (HPC)) 101 % of control; under setting [1], 103 % of control.
Regarding `Cc1cc(O[Si](C)(C)C)nc(O[Si](C)(C)C)n1`, the T/C (dose: 60.0 mg/kg/injection, schedule: Q01DX005 (ip), vehicle: saline with Tween-80) was 106 % of control; the T/C (dose: 120.0 mg/kg/injection, schedule: Q01DX005 (ip), vehicle: saline with Tween-80) is 110 % of control; the T/C (dose: 240.0 mg/kg/injection, schedule: Q01DX005 (ip), vehicle: saline with Tween-80) was 105 % of control.
With `CC(C)=CCC(OC(=O)C=C(C)C)c1cc(O)c2c(O)ccc(O)c2c1O.[O]=[V]` (centres undefined), the T/C is, setting by setting: (dose: 100.0 mg/kg/injection, schedule: Q04DX002 (ip), vehicle: saline with Tween-80) 92 % of control; (dose: 200.0 mg/kg/injection, schedule: Q04DX002 (ip), vehicle: saline with Tween-80) 92 % of control; (dose: 400.0 mg/kg/injection, schedule: Q04DX002 (ip), vehicle: saline with Tween-80) 109 % of control.
On to `COc1cc(/C=C/c2ccccn2)oc(=O)c1`, for which the T/C is 102 % of control (dose: 100.0 mg/kg/injection, schedule: Q04DX002 (ip), vehicle: Klucel (hydroxypropylcellulose) (HPC)); 100 % of control (dose: 200.0 mg/kg/injection, schedule: Q04DX002 (ip), vehicle: Klucel (hydroxypropylcellulose) (HPC)); 100 % of control (dose: 400.0 mg/kg/injection, schedule: Q04DX002 (ip), vehicle: Klucel (hydroxypropylcellulose) (HPC)).
